Measured values as given in PMC9381536, “Non-apoptotic cell death induction via sapogenin based supramolecular particles” (Scientific Reports, 2022).

Legend:
[1] = system: HeLa; assay: Cytotoxicity analysis (WST-1); type: cell-based; settings: Homo sapiens, 48 h
Experimental: (§1) HCC1937 (Human breast cancer line), HeLa (Human […]), A549 (Human lung adenocarcinoma), MRC-5 (Human lung fibroblasts), MCF7 (Human breast cancer cells), A549 (human lung carcinoma) were obtained from American Type Culture Collection and maintained as exponentially growing monolayers by culturing according to the supplier’s instructions. MCF7, HeLa, MRC-5, and A549 cell lines were cultured and routinely passaged in DMEM media containing 10% FBS, while HCC1937 cell lines were propagated in RPMI 1640 containing 10% FBS.
(§2) Following the treatment with compounds or vehicle for 48 h, the 10% WST-1 (Roche, Switzerland) in medium was replaced in each 96 well. After 4 h incubation with WST-1 reagent at 37 °C and 5% CO2, the absorbance was measured using a microplate reader at 440 nm (Varioscan, Thermo Fisher Scientific, US). Graph Pad Prism 5 (San Diego, CA, US.) was used to calculate the IC50, which represents the concentration of compounds that is required for 50% inhibition in comparison to the vehicle-treated controls. The experiments were repeated three times independently.

[2] = system: MCF7; assay: Cytotoxicity analysis (WST-1); type: cell-based; settings: Homo sapiens, MCF7, 48 h
Experimental: as §1, §2

[3] = system: MRC-5; assay: Cytotoxicity analysis (WST-1); type: cell-based; settings: Homo sapiens, MRC5, MRC-5 normal cell line, 48 h
Experimental: as §1, §2

[4] = system: HCC1937; assay: Cytotoxicity analysis (WST-1); type: cell-based; settings: Homo sapiens, HCC1937, 48 h
Experimental: as §1, §2

[5] = system: A549; assay: Cytotoxicity analysis (WST-1); type: cell-based; settings: Homo sapiens, A549, 48 h
Experimental: as §1, §2

[6] = system: HeLa, HCC1937, MCF7, A549 and MRC-5; assay: cells; type: cell-based, Human
Description: We next aimed to further characterize the relation between the chemical structure of AG-08 and its capacity of supramolecular assembly formation together with its biological activities by preparing further derivatives. In this regard, 18 analogs (Fig. 4) were synthesized from 20(27)-octanor-cycloastragenol (SCG), cycloastragenol (CG), and astragenol (AG) by the methods shown in the method section. The details and characterization of which are shown in Supplementary Information. The cytotoxic activities of the semi-synthetic analogs were evaluated against four human cancer cell lines, namely HeLa, HCC1937, MCF7, and A549 as well as against MRC-5 as a normal cell line.
as §1, §2

[7] = system: HCC1937 cells; assay: Endocytosis/vesicular trafficking inhibitors against AG-08-mediated cell death; type: cell-based, Human; settings: 1 h pre-treatment, then 8 µM AG-08 24 h, HCC1937, WST-1
Experimental: Figure 2 AG-08 is related with endosomal pathway. (A) After pre-treatment with 20 µM pitstop II, 0.5 mM methyl-β-cyclodextrin (MβC), 80 µM dynasore, 20 µM cytochalasin d (Cyto D) or 20 µM chlorpromazine (CPZ) for 1 h, HCC1937 cells were treated with 8 µM AG-08 for 24 h. Then cell viability was determined by using WST-1. Reported values were normalized on cells treated with only AG-08. Error bars are the standard deviations (n = 3). p-values were calculated with respect to AG-08 treated cells by two-tailed equal variance Student’s t-test (*p < 0.05, ***p < 0.001, ****p < 0.0001) (B) HCC1937 cells were treated with brefeldin A (Bref A) for 1 h and then treated with 8 µM AG-08 for 24 h. Error bars represent standard deviations (n = 3). p-values were calculated with respect to AG-08-treated cells (*p < 0.05, **p < 0.005, ***p < 0.001). (C) Following AG-08 treatment for 16 h, EEA1 proteins were stained using the anti-EEA1 antibody in HCC1937 cells (scale bar = 25 µm).
Pitstop II (Sigma; SML1169), methyl β cyclodextrin (Cayman; 21,633), chlorpromazine (Cayman; 16,129), dynasore (Cayman, 14,062) and cytochalasin D (Cayman; 11,330) were used as endocytosis inhibitors.

[8] = system: HCC1937 cells; assay: Cytotoxicity of 220 nm filtrates; type: cell-based; settings: HCC1937, 24 h
Experimental: Figure 1 AG-08 mediated cytotoxicity relies on the supramolecular structures. (A) Structure of AG-08. (B) The scanning transmission electron micrograph of 16 µM AG-08 in PBS. Figure is a representative image of stained sample with uranyl acetate (5683 × magnification; scale bar 600 nm). (C) After 3 h incubation of Nile red solution with AG-08 or AG, fluorescence intensity of Nile red was measured. (D) AG-08, Staurosporine (Sta) or vehicle samples prepared in the cell condition medium was filtrated by 220 nm filter and HCC1937 cells were exposed to the filtrates. After 24 h, the viability of cells was measured and represented as a percentage of that of the vehicle control. The error bars represent mean value ± s.d. (n = 3). *p < 0.05, **p < 0.005, ***p < 0.001. (E) Tween 20 (1:40,000) was added to the fresh medium before addition of 8 μM AG-08 or vehicle. Then cell medium was replaced with this fresh medium. Cell viability was detected after 24 h incubation. […] TEXT PRINTED IN THE PICTURE: (F) no label printed: Diameter: 153.2±4.6; polydispersity index: 0.218
To verify that the activity of AG-08 arises from its supramolecular structures, freshly prepared AG-08 solutions were filtered using 220 nm-filters to remove AG-08 supramolecular particles from medium, and the filtrates were analyzed for their cytotoxicity. […] Next, Tween-20 was utilized as a non-ionic detergent to block particle formation, and AG-08-mediated cell death was inhibited as expected (Fig. 1E). […]

Compound	IC50 [1]	IC50 [2]	IC50 [3]	IC50 [4]	IC50 [5]	cytotoxic activity (structure-activity statement) [6]	protection of cells against AG-08-mediated cell death [7]	cytotoxicity of filtrate after 220 nm filtration [8]
CC(C)(O)C1CCC(C)(C2C(O)CC3(C)C4CC(=O)C5C(C)(CCC(O)C5(C)C)C4=CCC23C)O1 (stereo not drawn) [AG-01]	> 30 µM	> 30 µM	> 30 µM	> 30 µM	> 30 µM	–	–	–
CC(C)(O)C1CCC(C)(C2C(O)CC3(C)C4CC(O)C5C(C)(C)C=CCC5(C)C4=CCC23C)O1 (stereo not drawn) [AG-02]	42.6 µM	32.1 µM	39.9 µM	46.1 µM	30.5 µM	did not exhibit antiproliferative effect	–	–
CC(C)(O)C1CCC(C)(C2C(O)CC3(C)C4C=CC5C(C)(CCC(O)C5(C)C)C4=CCC23C)O1 (stereo not drawn) [AG-03]	33.4 µM	21.8 µM	24.4 µM	20.3 µM	25.5 µM	–	–	–
CC(C)(O)C1CCC(C)(C2C(O)CC3(C)C4C=CC5C(C)(CCC(OS(C)(=O)=O)C5(C)C)C4=CCC23C)O1 (stereo not drawn) [AG-04]	> 50 µM	22.1 µM	29.6 µM	> 50 µM	27.5 µM	the activity was lost	–	–
CN(C)c1cccc2c(S(=O)(=O)OC3CCC4(C)C5=CCC6(C)C(C7(C)CCC(C(C)(C)O)O7)C(O)CC6(C)C5C=CC4C3(C)C)cccc12 (stereo not drawn) [AG-07]	34.7 µM	–	7.4 µM	38.3 µM	38.2 µM	loss of activity	–	–
C[C@H]1CCC/C=C/[C@@H]2C[C@H](O)C[C@H]2[C@H](O)/C=C/C(=O)O1 [Brefeldin A]	–	–	–	–	–	–	reduced AG-08 dependent cell death	–
CC(C)(O)C1CCC(C)(C2C(O)CC3(C)C4CC(O)C5C(C)(C)C(O)CCC56CC46CCC23C)O1 (stereo not drawn) [CG, cycloastragenol, reference compound]	> 50 µM	> 50 µM	> 50 µM	> 50 µM	> 50 µM	–	–	–
CC(C)(O)C1CCC(C)(C2C(O)CC3(C)C4CC(=O)C5C(C)(C)C(O)CCC56CC46CCC23C)O1 (stereo not drawn) [CG-01]	> 30 µM	> 30 µM	> 30 µM	> 30 µM	> 30 µM	–	–	–
CC(C)(O)C1CCC(C)(C2C(O)CC3(C)C4C=CC5C(C)(C)C(O)CCC56CC46CCC23C)O1 (stereo not drawn) [CG-02]	43.9 µM	21.2 µM	33.4 µM	32.5 µM	21.1 µM	did not exhibit antiproliferative effect	–	–
CC(C)(O)C1CCC(C)(C2C(O)CC3(C)C4C=CC5C(C)(C)C(OS(C)(=O)=O)CCC56CC46CCC23C)O1 (stereo not drawn) [CG-04]	> 50 µM	> 50 µM	> 50 µM	> 50 µM	> 50 µM	the activity was lost	–	–
CC1(C)C(O)CCC23CC24CCC2(C)CC(O)CC2(C)C4CC(O)C13 (stereo not drawn) [SCG, 20(27)-octanor-cycloastragenol, reference compound]	> 50 µM	> 50 µM	> 50 µM	> 50 µM	> 50 µM	–	–	–
Cc1ccc(S(=O)(=O)OC2CC3(C)CCC45CC46CCC(O)C(C)(C)C6C(O)CC5C3(C)C2)cc1 (stereo not drawn) [SCG-01]	> 50 µM	> 50 µM	> 50 µM	> 50 µM	> 50 µM	–	–	–
CC1(C)C(O)CCC23CC24CCC2(C)CC(O)CC2(C)C4C=CC13 (stereo not drawn) [SCG-02]	> 50 µM	> 50 µM	> 50 µM	> 50 µM	> 50 µM	–	–	–
Cc1ccc(S(=O)(=O)OC2CC3C4(C)CC(O)CC4(C)CCC34CC43CC=CC(C)(C)C23)cc1 (stereo not drawn) [SCG-03]	> 50 µM	> 50 µM	> 50 µM	> 50 µM	> 50 µM	–	–	–
Cc1ccc(S(=O)(=O)OC2CC3(C)CCC45CC46CCC(OS(=O)(=O)c4ccc(C)cc4)C(C)(C)C6C=CC5C3(C)C2)cc1 (stereo not drawn) [SCG-04]	> 50 µM	> 50 µM	> 50 µM	> 50 µM	> 50 µM	–	–	–
Cc1ccc(S(=O)(=O)OC2CC3(C)CCC45CC46CCC(O)C(C)(C)C6C=CC5C3(C)C2)cc1 (stereo not drawn) [SCG-05]	> 50 µM	> 50 µM	> 50 µM	> 50 µM	> 50 µM	–	–	–
CC1(C)C(OS(C)(=O)=O)CCC23CC24CCC2(C)CC(OS(C)(=O)=O)CC2(C)C4C=CC13 (stereo not drawn) [SCG-06]	> 50 µM	> 50 µM	> 50 µM	> 50 µM	> 50 µM	–	–	–
CC1(C)C(O)CCC23CC24CCC2(C)CC(OS(C)(=O)=O)CC2(C)C4CC(O)C13 (stereo not drawn) [SCG-07]	> 50 µM	> 50 µM	> 50 µM	> 50 µM	> 50 µM	–	–	–
CN(C)CCCN1c2ccccc2Sc2ccc(Cl)cc21 [chlorpromazine]	–	–	–	–	–	–	failed to rescue cells	–
C=C1[C@@H](C)[C@H]2[C@H](Cc3ccccc3)NC(=O)[C@]23[C@H](OC(C)=O)/C=C/[C@@](C)(O)C(=O)[C@@H](C)C/C=C/[C@H]3[C@@H]1O [cytochalasin D]	–	–	–	–	–	–	failed to rescue cells	–
O=C(N/N=C/c1ccc(O)c(O)c1)c1cc2ccccc2cc1O [dynasore]	–	–	–	–	–	–	failed to rescue cells	–
O=C1N=C(NS(=O)(=O)c2cccc3ccccc23)SC1=Cc1ccc(Br)cc1 [pitstop II]	–	–	–	–	–	–	effectively protected cells	–
CN[C@@H]1C[C@H]2O[C@@](C)([C@@H]1OC)n1c3ccccc3c3c4c(c5c6ccccc6n2c5c31)C(=O)NC4 [staurosporine, reference compound]	–	–	–	–	–	–	–	still effectively caused cell death
methyl β-cyclodextrin	–	–	–	–	–	–	effectively protected cells	–
